According to US20260151372A1, “AZOTOMYCIN PRODRUGS WITH PREFERENTIAL TUMOR DELIVERY” (The Johns Hopkins University, priority 2022, published 2026):
Entries after “also recorded” stand apart in the source; their conditions may differ.

Experiments:
[1] = Pharmacokinetics in C57BL/6 CES1^−/− mice bearing flank EL4 tumors; type: in vivo
Experimental: The pharmacokinetic study in C57BL/6 CES1 mice was conducted according to protocols reviewed and approved by the Johns Hopkins Institutional Animal Care and Use Committee in compliance with the Association for Assessment and Accreditation of Laboratory Animal Care International and the Public Health Service Policy on the Humane Care and Use of Laboratory Animals (PHS Policy). Briefly, naïve male and female C57BL/6 CES1^−/− mice (weighing between 25 and 30 g) 6-8 weeks of age were used. The animals were maintained on a 12 h light-dark cycle with ad libitum access to food and water. Tumors were grown via subcutaneous (SC) injection of EL4 cells (1×10^6 cells in 0.2 mL of phosphate-buffered saline) in one location on the flank of each mouse. […]
For quantifying intact analytes in the pharmacokinetic samples, plasma samples (25 μL) were processed using a single step protein precipitation method by addition of 125 μL of methanol containing internal standard (losartan: 0.5 μM), followed by vortex-mixing for 30 s and then centrifugation at 16,000 g for 5 min at 4° C. […]
The samples were subjected to dabsyl chloride derivatization and analyzed by LC-MS/MS, as described in Tenora et al., 2019. […]

[2] = Plasma stability in human plasma; type: in vitro ADME; details: 37° C.
Experimental: (§1) In vitro stability studies were done using CES1KO mouse plasma, human plasma, CES1-KO mouse liver, and human liver microsomes as previously described. For tissue homogenate stability studies, washed tissue was diluted 10-fold in 0.1 M potassium phosphate buffer and homogenized using probe sonication. Crude homogenate was then aliquoted to 1 mL, and spiked with 10 mM stock of the analyte in DMSO to achieve a 10 μM final concentration. The plasma stability of the prodrugs was determined by spiking the analyte in 1 mL of plasma. The plasma and tissues were incubated in an orbital shaker at 37° C. Stability in human liver microsomes was assessed at a final prodrug concentration of 1 μM with 0.2 mg/mL protein for microsomes. All the stability studies were conducted at predetermined times (0 and 60 min), where 50 μL aliquots of the mixture in triplicate were removed and the reaction was quenched by addition of 5 times the volume of ice-cold methanol spiked with the internal standard (losartan: 0.5 μM). The samples were vortex-mixed for 30 s and centrifuged at 10,000 g for 10 min at 4° C. An amount of 50 μL of the supernatant was diluted with 50 μL of water and transferred to a 250 μL polypropylene vial sealed with a Teflon cap. Prodrug disappearance was monitored over time using liquid chromatography and mass spectrometry (LC-MS).
(§2) Analyses were performed on a Dionex ultra high-performance LC system coupled with Q Exactive Focus orbitrap mass spectrometer (Thermo Fisher Scientific Inc., Waltham MA). Separation was achieved using Agilent Eclipse Plus column (100×2.1 mm i.d., maintained at 35° C.) packed with a 1.8 μm C18 stationary phase. The mobile phase consisted of 0.1% formic acid in water and 0.1% formic acid in acetonitrile, […] were operated at a flow rate of 0.3 mL/min for 7 min using gradient elution. The mass spectrometer controlled by Xcalibur software 4.0.27.13 (Thermo Scientific) was operated with a HESI ion source in positive ionization mode. Metabolites were identified in the full-scan mode (from m/z 50 to 1600) by comparing […] samples

[3] = Plasma stability in CES1KO mouse plasma; type: in vitro ADME; details: for Plasma Stability (% Remaining at 60 min) CES1^−/− Mouse Plasma: 37° C.; for stability in vitro (in words): mouse and human plasma and liver microsomes in vitro
Experimental: as §1, §2

[4] = Metabolic stability in human liver microsomes; type: in vitro ADME; details: 1 μM prodrug, 0.2 mg/mL protein
Experimental: as §1, §2

[5] = Metabolic stability in CES1-KO mouse liver homogenate; type: in vitro ADME; details: tissue homogenate, 10 μM, 37° C.
Experimental: as §1, §2

| SMILES | preferential tumor delivery / tumor targeting (in words) [1] | Plasma Stability (% Remaining at 60 min) Human Plasma [2] | Plasma Stability (% Remaining at 60 min) CES1^−/− Mouse Plasma [3] | stability in vitro (in words) [3] | Liver Stability (% Remaining at 60 min) Human Liver Microsomes [4] | Liver Stability (% Remaining at 60 min) CES1^−/− Mouse Liver [5] |
| --- | --- | --- | --- | --- | --- | --- |
| CN(C)CC(=O)N[C@@H](CCC(=O)N[C@@H](CCC(=O)C=[N+]=[N-])C(=O)N[C@@H](CCC(=O)C=[N+]=[N-])C(=O)OC(C)(C)C)C(=O)OC(C)(C)C [Prodrug P3, tert-Butyl (6S,11S,14S)-6-(tert-butoxycarbonyl)-11,14-bis(4-diazo-3-oxobutyl)-2-methyl-4,9,12-trioxo-2,5,10,13-tetraazapentadecan-15-oate] | exhibited preferential tumor delivery | 106 ± 2.40% | 92.3 ± 0.882% | stable | 105 ± 2.53% | 96.0 ± 4.36% |
| CN(C)CC(=O)N[C@@H](Cc1c[nH]c2ccccc12)C(=O)N[C@@H](CCC(=O)N[C@@H](CCC(=O)C=[N+]=[N-])C(=O)N[C@@H](CCC(=O)C=[N+]=[N-])C(=O)OC(C)(C)C)C(=O)OC(C)(C)C [Prodrug P4, tert-Butyl (6S,9S,14S,17S)-6-((1H-indol-3-yl)methyl)-9-(tert-butoxycarbonyl)-14,17-bis(4-diazo-3-oxobutyl)-2-methyl-4,7,12,15-tetraoxo-2,5,8,13,16-pentaazaoctadecan-18-oate] | exhibited preferential tumor delivery; also recorded: showed tumor targeting | 100 ± 0.00% | 101 ± 4.67% | stable | 107 ± 1.63% | 54.3 ± 1.45% |
| CC(C)C[C@H](N)C(=O)N[C@@H](CCC(=O)N[C@@H](CCC(=O)C=[N+]=[N-])C(=O)N[C@@H](CCC(=O)C=[N+]=[N-])C(=O)[O-])C(=O)[O-].[Na+].[Na+] [Prodrug P16, Sodium (S)-2-((S)-2-((S)-4-((S)-2-amino-4-methylpentanamido)-4-carboxylatobutanamido)-6-diazo-5-oxohexanamido)-6-diazo-5-oxohexanoate] |  | 87.4 ± 1.61% | 4.17 ± 0.58% |  | 91.0 ± 1.01% | 4.50 ± 1.58% |
| CC(C)OC(=O)[C@H](CCC(=O)N[C@@H](CCC(=O)C=[N+]=[N-])C(=O)N[C@@H](CCC(=O)C=[N+]=[N-])C(=O)OC(C)C)NC(=O)CNC(=O)CN(C)C [Prodrug P17, Isopropyl (9S,14S,17S)-14,17-bis(4-diazo-3-oxobutyl)-9-(isopropoxycarbonyl)-2-methyl-4,7,12,15-tetraoxo-2,5,8,13,16-pentaazaoctadecan-18-oate] |  | 93.7 ± 4.92% | 94.0 ± 2.47% |  | 98.0 ± 5.36% | 0.964 ± 0.031% |
| CC(C)OC(=O)[C@H](CCC(=O)C=[N+]=[N-])NC(=O)[C@H](CCC(=O)C=[N+]=[N-])NC(=O)CC[C@H](NC(=O)[C@H](CCCNC(N)=O)NC(=O)[C@@H](N)C(C)C)C(=O)OC(C)C [Prodrug P18, Isopropyl (6S,9S,14S,17S)-1-amino-6-((S)-2-amino-3-methylbutanamido)-14,17-bis(4-diazo-3-oxobutyl)-9-(isopropoxycarbonyl)-1,7,12,15-tetraoxo-2,8,13,16-tetraazaoctadecan-18-oate] |  | 105 ± 4.81% | 105 ± 5% |  | 84.9 ± 2.30% | 0.11 ± 0.03% |
| CC(=O)NCCCC[C@H](NC(=O)C12CC3CC(CC(C3)C1)C2)C(=O)N[C@@H](CCC(=O)N[C@@H](CCC(=O)C=[N+]=[N-])C(=O)N[C@@H](CCC(=O)C=[N+]=[N-])C(=O)OC(C)C)C(=O)OC(C)C [Prodrug P19, Isopropyl (2S,5S,10S,13S)-13-((3S,5S,7S)-adamantane-1-carboxamido)-2,5-bis(4-diazo-3-oxobutyl)-10-(isopropoxycarbonyl)-4,7,12,19-tetraoxo-3,6,11,18-tetraazaicosanoate] |  | 97.0 ± 4.11% | 85.1 ± 0.64% |  | 74.1 ± 2.10% | 0.502 ± 0.103% |
